Molecular target: T1, TgAPT (apicoplast phosphate translocator), TgAPT-N (Toxoplasma gondii, UniProt A7U554)
T1 sequence (A7U554 1-352): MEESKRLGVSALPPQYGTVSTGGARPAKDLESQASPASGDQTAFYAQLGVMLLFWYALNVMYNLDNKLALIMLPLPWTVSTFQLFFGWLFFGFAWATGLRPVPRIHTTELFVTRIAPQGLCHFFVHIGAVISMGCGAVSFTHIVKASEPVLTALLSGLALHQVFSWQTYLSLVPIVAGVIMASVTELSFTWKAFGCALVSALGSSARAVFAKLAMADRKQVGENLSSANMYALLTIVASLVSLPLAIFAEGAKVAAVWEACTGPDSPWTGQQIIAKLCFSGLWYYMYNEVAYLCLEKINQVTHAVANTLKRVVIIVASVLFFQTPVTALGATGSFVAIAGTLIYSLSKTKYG
Assay: […]-Pi uptake into proteoliposomes, competitive inhibition
Format: biochemical
Settings: competitive with Pi; apparent; pH 7.6; reconstituted solubilized yeast membranes

Molecule	Kinetic constant ^d / TgAPT
triose phosphate	1.63 ± 0.26 mM
C=C(OP(=O)(O)O)C(=O)O [PEP]	1.65 ± 0.52 mM
O=C(O)[C@H](O)COP(=O)(O)O [3-PGA]	1.33 ± 0.49 mM

— article PMC3013619 (Cell host & microbe, 2009)
